Assay [1] concerns the target T1, V-type immunoglobulin domain-containing suppressor of T-cell activation (Homo sapiens, UniProt Q9H7M9).
T1 sequence (Q9H7M9 whole entry): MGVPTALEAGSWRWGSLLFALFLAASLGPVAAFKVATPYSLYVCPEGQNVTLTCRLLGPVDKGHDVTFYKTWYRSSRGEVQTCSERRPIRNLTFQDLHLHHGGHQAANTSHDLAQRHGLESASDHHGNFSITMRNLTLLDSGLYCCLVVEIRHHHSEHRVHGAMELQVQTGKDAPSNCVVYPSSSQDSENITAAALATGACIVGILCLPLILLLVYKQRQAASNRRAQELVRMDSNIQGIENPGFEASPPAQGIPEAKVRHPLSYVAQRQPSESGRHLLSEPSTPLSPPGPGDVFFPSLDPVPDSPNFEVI
Description: Binding affinity to human VISTA assessed as dissociation constant by MST analysis

Assay [2] has as its target T2, V-type immunoglobulin domain-containing suppressor of T-cell activation (Mus musculus, UniProt Q9D659).
T2 sequence (Q9D659 whole entry): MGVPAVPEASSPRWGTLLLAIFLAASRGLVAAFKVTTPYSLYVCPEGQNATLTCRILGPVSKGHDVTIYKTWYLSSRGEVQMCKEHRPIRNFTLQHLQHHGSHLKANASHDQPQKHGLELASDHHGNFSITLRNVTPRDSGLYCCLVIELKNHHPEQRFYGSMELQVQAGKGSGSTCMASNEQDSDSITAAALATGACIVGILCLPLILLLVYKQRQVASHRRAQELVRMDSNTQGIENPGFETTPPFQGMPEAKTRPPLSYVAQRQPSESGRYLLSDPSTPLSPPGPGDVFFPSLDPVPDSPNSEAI
Kind of assay: Binding affinity to mouse VISTA ECD assessed as dissociation constant by MST analysis.

The term Kd denotes the constant that tells how readily two partners part at equilibrium. With `COC1C=C(CNCCNC(C)=O)N=C(Nc2cccc(O)c2)N1` (configuration not stated), in assay [1], binding was put at a Kd of 4730 nM.
For the molecule `Cc1ccc2nc(Nc3nc(O)cc(CSc4nnc(C)s4)n3)nc(C)c2c1`, in assay [2], the Kd stood at 647 nM.
